Results published in ChEMBL document CHEMBL5518199, “Discovery of Effective Dual PROTAC Degraders for Neurodegenerative Disease-Associated Aggregates” (J Med Chem, 2024).

Experiments:
in vivo [1] = settings: rat, iv, 8 mg/kg
in vivo [2] = settings: C57BL/6, mouse, iv, 8 mg/kg
in vitro [3] = settings: C57BL/6, mouse, brain
in vivo [4] = settings: C57BL/6, mouse, iv, 8 mg/kg; remark: listed apart in the source
in vivo [5] = settings: rat, iv, 8 mg/kg; remark: listed apart in the source
in vivo [6] = settings: C57BL/6, mouse, plasma, iv, 8 mg/kg
in vivo [7] = settings: C57BL/6, mouse, brain, iv, 8 mg/kg
in vivo [8] = settings: C57BL/6, mouse, plasma, iv, 8 mg/kg; remark: listed apart in the source
in vivo [9] = settings: C57BL/6, mouse, iv, 8 mg/kg; remark: listed apart in the source
in vitro [10] = settings: C57BL/6, mouse, plasma
in vivo [11] = settings: rat, iv, 8 mg/kg; remark: listed apart in the source
in vivo [12] = settings: C57BL/6, mouse, iv, 8 mg/kg; remark: listed apart in the source
in vivo [13] = settings: C57BL/6, mouse, brain, iv, 8 mg/kg; remark: listed apart in the source
in vivo [14] = settings: C57BL/6, mouse, brain, iv, 8 mg/kg; remark: listed apart in the source
in vivo [15] = settings: rat, iv, 8 mg/kg; remark: listed apart in the source
in vivo [16] = settings: C57BL/6, mouse, brain, iv, 8 mg/kg; remark: listed apart in the source
in vivo [17] = settings: rat, iv, 8 mg/kg; remark: listed apart in the source
in vivo [18] = settings: C57BL/6, mouse, plasma, iv, 8 mg/kg; remark: listed apart in the source

With `Cc1ccc2nc(-c3ccc(NCCOCCOCCOCCNC(=O)COc4cccc5c4C(=O)N(C4CCC(=O)NC4=O)C5=O)cc3)sc2c1` (stereo not drawn) the half-life at 24 h (in vivo [1]) was 227 min, the AUC(0-inf) at 24 h (in vivo [2]) was 109 µM·h and the fraction unbound at 24 h (in vitro [3]) was 0.397. The Vd at 24 h (in vivo [4]) was 0.48 L/kg, the clearance at 24 h (in vivo [5]) was 2 mL/min/kg and the half-life at 24 h (in vivo [6]) was 194 min. It also gave a concentration at 168.25 h (in vivo [7]) of 2700 nM, an AUC at 24 h (in vivo [8]) of 109 µM·h and a clearance at 24 h (in vivo [9]) of 1.68 mL/min/kg. The fraction unbound at 24 h (in vitro [10]) was 0.442, the AUC(0-inf) at 24 h (in vivo [11]) was 65.5 µM·h and the AUC(0-t) at 24 h (in vivo [12]) was 109 µM·h. The half-life at 24 h (in vivo [13]) was 253 min, the AUC at 24 h (in vivo [14]) was 6.02 µM·h and the AUC(0-t) at 24 h (in vivo [15]) was 65.4 µM·h. For the same molecule, the concentration at 0.25 h (in vivo [16]) was 1730 nM, the Vd at 24 h (in vivo [17]) was 0.92 L/kg and the concentration at 0.25 h (in vivo [18]) was 67.2 µM.
